# Reference: patent US20200338519A1, “METHOD FOR PREPARING LIPOSOME” (priority 2015, published 2020)
# Experiment: Solubility in water and aqueous medium
# Assay type: physicochemical
substance,measurement,value
moexitecan,Solubility in water and an aqueous medium,insoluble or almost insoluble
